Experimental data: PubChem BioAssay AID256 (DTP/NCI, 2004)
Toxic doses and inconclusive results are not listed. Non-standard residues stand in square brackets, D forms with d. Residues, ends and D or L forms follow the SMILES beside them. ξ: configuration not given here. *: point of attachment. ξV = CC(C)C(N)C(=O)O; ClAc = O=C(CCl)*

Tested on: CD2F1 mice, L1210 leukemia ip, survival T/C
Test: NCI In Vivo Anticancer Drug Screen. Data for tumor model L1210 Leukemia (intraperitoneal) in CD2F1 (CDF1) mice
Details: higher = longer survival
Summary of the method: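 Tumor-bearing mice (transplanted tumor) were split into treated and vehicle control groups, and the measured endpoint of each treated group was divided by that of its vehicle controls.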

[1] = endpoint: mean survival time, dose: 100.0 mg/kg/injection, schedule: Q01DX001 (ip), vehicle: saline
[2] = endpoint: mean survival time, dose: 200.0 mg/kg/injection, schedule: Q01DX001 (ip), vehicle: saline
[3] = endpoint: mean survival time, dose: 400.0 mg/kg/injection, schedule: Q01DX001 (ip), vehicle: saline
[4] = endpoint: mean survival time, dose: 25.0 mg/kg/injection, schedule: Q04DX003 (ip), vehicle: saline with Tween-80
[5] = endpoint: mean survival time, dose: 50.0 mg/kg/injection, schedule: Q01DX009 (ip), vehicle: saline with Tween-80
[6] = endpoint: mean survival time, dose: 50.0 mg/kg/injection, schedule: Q04DX003 (ip), vehicle: saline with Tween-80
[7] = endpoint: mean survival time, dose: 100.0 mg/kg/injection, schedule: Q01DX009 (ip), vehicle: saline with Tween-80
[8] = endpoint: mean survival time, dose: 100.0 mg/kg/injection, schedule: Q04DX003 (ip), vehicle: saline with Tween-80
[9] = endpoint: mean survival time, dose: 200.0 mg/kg/injection, schedule: Q01DX009 (ip), vehicle: saline with Tween-80
[10] = endpoint: mean survival time, dose: 100.0 mg/kg/injection, schedule: Q04DX003 (ip), vehicle: saline
[11] = endpoint: mean survival time, dose: 200.0 mg/kg/injection, schedule: Q04DX003 (ip), vehicle: saline
[12] = endpoint: mean survival time, dose: 400.0 mg/kg/injection, schedule: Q04DX003 (ip), vehicle: saline
[13] = endpoint: mean survival time, dose: 200.0 mg/kg/injection, schedule: Q04DX003 (ip), vehicle: saline with Tween-80
[14] = endpoint: mean survival time, dose: 100.0 mg/kg/injection, schedule: Q04DX002 (ip), vehicle: saline with Tween-80
[15] = endpoint: mean survival time, dose: 200.0 mg/kg/injection, schedule: Q04DX002 (ip), vehicle: saline with Tween-80
[16] = endpoint: mean survival time, dose: 400.0 mg/kg/injection, schedule: Q04DX002 (ip), vehicle: saline with Tween-80

In the case of `CCOC(=O)C(C)Sc1nn(C2OC(COC(=O)c3ccccc3)C(OC(=O)c3ccccc3)C2OC(=O)c2ccccc2)c(=O)[nH]c1=O` (stereo unspecified), the T/C (endpoint: mean survival time, dose: 12.5 mg/kg/injection, schedule: Q01DX005 (ip), vehicle: distilled water + Tween-80) is reported as 97 % of control, the T/C (endpoint: mean survival time, dose: 25.0 mg/kg/injection, schedule: Q01DX005 (ip), vehicle: distilled water + Tween-80) is reported as 97 % of control and the T/C (endpoint: mean survival time, dose: 50.0 mg/kg/injection, schedule: Q01DX005 (ip), vehicle: distilled water + Tween-80) is reported as 95 % of control. The T/C (endpoint: mean survival time, dose: 100.0 mg/kg/injection, schedule: Q01DX005 (ip), vehicle: distilled water + Tween-80) was 95 % of control and the T/C (endpoint: mean survival time, dose: 200.0 mg/kg/injection, schedule: Q01DX005 (ip), vehicle: distilled water + Tween-80) was 89 % of control.

For `CN(C)c1ccn(C2OC(CO)C(O)C2SC(C)(C)C)c(=O)n1` (stereo unspecified), the T/C (endpoint: median survival time, dose: 12.5 mg/kg/injection, schedule: Q01DX005 (ip), vehicle: saline) was 100 % of control, the T/C (endpoint: median survival time, dose: 25.0 mg/kg/injection, schedule: Q01DX005 (ip), vehicle: saline) was 99 % of control and the T/C (endpoint: median survival time, dose: 50.0 mg/kg/injection, schedule: Q01DX005 (ip), vehicle: saline) was 97 % of control. The T/C (endpoint: median survival time, dose: 100.0 mg/kg/injection, schedule: Q01DX005 (ip), vehicle: saline) was 104 % of control and the T/C (endpoint: median survival time, dose: 200.0 mg/kg/injection, schedule: Q01DX005 (ip), vehicle: saline) was 96 % of control.

`O=C(O)CCC(=O)c1ccc([N+](=O)[O-])cc1` was tested, and the T/C [1] was 101 % of control, the T/C [2] was 97 % of control and the T/C [3] was 97 % of control.

For `CC(=O)OCC1OC(OC(C)=O)C(NC(=O)N(CCOCCCl)N=O)C(OC(C)=O)C1OC(C)=O` (stereo unspecified), the T/C (endpoint: mean survival time, dose: 6.25 mg/kg/injection, schedule: Q01DX001 (ip), vehicle: distilled water + Tween-80) was 101 % of control, the T/C (endpoint: mean survival time, dose: 12.5 mg/kg/injection, schedule: Q01DX001 (ip), vehicle: distilled water + Tween-80) was 101 % of control and the T/C (endpoint: mean survival time, dose: 25.0 mg/kg/injection, schedule: Q01DX001 (ip), vehicle: distilled water + Tween-80) was 93 % of control. For the same compound, the T/C (endpoint: mean survival time, dose: 50.0 mg/kg/injection, schedule: Q01DX001 (ip), vehicle: distilled water + Tween-80) was 93 % of control, the T/C (endpoint: mean survival time, dose: 100.0 mg/kg/injection, schedule: Q01DX001 (ip), vehicle: distilled water + Tween-80) was 101 % of control and the T/C (endpoint: mean survival time, dose: 200.0 mg/kg/injection, schedule: Q01DX001 (ip), vehicle: distilled water + Tween-80) was 97 % of control. For the same compound, the T/C (endpoint: mean survival time, dose: 400.0 mg/kg/injection, schedule: Q01DX001 (ip), vehicle: distilled water + Tween-80) was 109 % of control.

In the case of `O=c1[nH]cc(F)c(=O)n1C1OC(CO)C(O)C1O` (stereo unspecified), the T/C (endpoint: mean survival time, dose: 1.0 mg/kg/injection, schedule: Q01DX009 (ip), vehicle: saline) is reported as 169 % of control, the T/C (endpoint: mean survival time, dose: 2.0 mg/kg/injection, schedule: Q01DX005 (ip), vehicle: saline) is reported as 160 % of control and the T/C (endpoint: mean survival time, dose: 2.0 mg/kg/injection, schedule: Q01DX009 (ip), vehicle: saline) is reported as 160 % of control. For the same compound, the T/C (endpoint: mean survival time, dose: 4.0 mg/kg/injection, schedule: Q01DX005 (ip), vehicle: saline) was 207 % of control, the T/C (endpoint: mean survival time, dose: 4.0 mg/kg/injection, schedule: Q01DX009 (ip), vehicle: saline) was 124 % of control and the T/C (endpoint: mean survival time, dose: 5.0 mg/kg/injection, schedule: Q03HX024 (ip), vehicle: saline) was 155 % of control. The T/C (endpoint: mean survival time, dose: 5.0 mg/kg/injection, schedule: Q04DX003 (ip), vehicle: saline) was 163 % of control, the T/C (endpoint: mean survival time, dose: 10.0 mg/kg/injection, schedule: Q03HX024 (ip), vehicle: saline) was 231 % of control and the T/C (endpoint: mean survival time, dose: 10.0 mg/kg/injection, schedule: Q04DX003 (ip), vehicle: saline) was 189 % of control. The T/C (endpoint: mean survival time, dose: 20.0 mg/kg/injection, schedule: Q01DX001 (ip), vehicle: saline) was 151 % of control, the T/C (endpoint: mean survival time, dose: 20.0 mg/kg/injection, schedule: Q03HX024 (ip), vehicle: saline) was 151 % of control and the T/C (endpoint: mean survival time, dose: 20.0 mg/kg/injection, schedule: Q04DX003 (ip), vehicle: saline) was 184 % of control.

In the case of `N#CSCN1C(=O)C=CC1=O`, the T/C (endpoint: mean survival time, dose: 1.25 mg/kg/injection, schedule: Q01DX009 (ip), vehicle: saline with Tween-80) is reported as 93 % of control, the T/C (endpoint: mean survival time, dose: 2.5 mg/kg/injection, schedule: Q01DX009 (ip), vehicle: saline with Tween-80) is reported as 89 % of control and the T/C (endpoint: mean survival time, dose: 5.0 mg/kg/injection, schedule: Q01DX009 (ip), vehicle: saline with Tween-80) is reported as 93 % of control.

For `CC(C)C(NC(=O)CNC(=O)CCl)C(=O)O` (stereo unspecified) (ClAc-Gly-[ξV]-OH), the T/C (endpoint: mean survival time, dose: 25.0 mg/kg/injection, schedule: Q01DX009 (ip), vehicle: saline with Tween-80) was 92 % of control, the T/C [4] was 96 % of control and the T/C [5] was 97 % of control. The T/C [6] was 100 % of control, the T/C [7] was 97 % of control and the T/C [8] was 100 % of control.

For `C=CC(=O)Nc1cccc(OC(=O)NCC)c1`, the T/C [7] was 94 % of control, the T/C [9] was 92 % of control and the T/C (endpoint: mean survival time, dose: 400.0 mg/kg/injection, schedule: Q01DX009 (ip), vehicle: saline with Tween-80) was 97 % of control.

For `COc1ccn(C2OCCC(N=[N+]=[N-])C2O)c(=O)n1` (stereo unspecified), the T/C (endpoint: median survival time, dose: 12.5 mg/kg/injection, schedule: Q01DX005 (ip), vehicle: alkali diluted with saline) was 109 % of control, the T/C (endpoint: median survival time, dose: 25.0 mg/kg/injection, schedule: Q01DX005 (ip), vehicle: alkali diluted with saline) was 102 % of control and the T/C (endpoint: median survival time, dose: 50.0 mg/kg/injection, schedule: Q01DX005 (ip), vehicle: alkali diluted with saline) was 108 % of control. For the same compound, the T/C (endpoint: median survival time, dose: 100.0 mg/kg/injection, schedule: Q01DX005 (ip), vehicle: alkali diluted with saline) was 109 % of control and the T/C (endpoint: median survival time, dose: 200.0 mg/kg/injection, schedule: Q01DX005 (ip), vehicle: alkali diluted with saline) was 98 % of control.

With `c1ccc(N/N=C2/CSCc3ccccc32)cc1` the T/C (endpoint: mean survival time, dose: 100.0 mg/kg/injection, schedule: Q01DX009 (ip), vehicle: Klucel (hydroxypropylcellulose) (HPC)) was 98 % of control, the T/C (endpoint: mean survival time, dose: 200.0 mg/kg/injection, schedule: Q01DX009 (ip), vehicle: Klucel (hydroxypropylcellulose) (HPC)) was 93 % of control and the T/C (endpoint: mean survival time, dose: 400.0 mg/kg/injection, schedule: Q01DX009 (ip), vehicle: Klucel (hydroxypropylcellulose) (HPC)) was 93 % of control.

`c1cc[n+](C[n+]2ccccc2)cc1` was tested, and the T/C [1] was 101 % of control, the T/C [10] was 96 % of control and the T/C [2] was 101 % of control. For the same compound, the T/C [11] was 97 % of control, the T/C [3] was 101 % of control and the T/C [12] was 100 % of control.

`O=C(NNC(=O)c1cccnc1)Nc1cccc(Cl)c1Cl` was tested, and the T/C [5] was 94 % of control and the T/C [9] was 101 % of control.

`COc1c(OC(C)=O)ccc(/C=C2\COC(C)=N2)c1[N+](=O)[O-]` was tested, and the T/C [8] was 96 % of control, the T/C [13] was 102 % of control and the T/C (endpoint: mean survival time, dose: 400.0 mg/kg/injection, schedule: Q04DX003 (ip), vehicle: saline with Tween-80) was 92 % of control.

With `Cc1ccc2nc(-c3ccc(Cl)cc3Cl)oc(=O)c2c1` the T/C [14] was 100 % of control, the T/C [15] was 114 % of control and the T/C [16] was 107 % of control.

For `CC(O)CNCCNc1ccc(NCCNCC(C)O)c2c1C(=O)c1c(O)ccc(O)c1C2=O` (stereo unspecified), the T/C (endpoint: mean survival time, dose: 0.25 mg/kg/injection, schedule: Q01DX005 (ip), vehicle: water) was 123 % of control, the T/C (endpoint: mean survival time, dose: 0.5 mg/kg/injection, schedule: Q01DX005 (ip), vehicle: water) was 123 % of control and the T/C (endpoint: mean survival time, dose: 8.0 mg/kg/injection, schedule: Q01DX005 (ip), vehicle: water) was 165 % of control.

With `NC(CCSc1ccccc1)C(=O)O` (stereo unspecified) the T/C [10] was 104 % of control, the T/C [11] was 102 % of control and the T/C [12] was 88 % of control.

With `NC(N)=N/N=C/c1ccc(Cl)c(Cl)c1` the T/C (endpoint: mean survival time, dose: 12.5 mg/kg/injection, schedule: Q04DX003 (ip), vehicle: saline with Tween-80) was 105 % of control, the T/C [4] was 97 % of control and the T/C [6] was 94 % of control.

With `O=c1[nH]cc[nH]1` the T/C (endpoint: mean survival time, dose: 267.0 mg/kg/injection, schedule: Q01DX009 (ip), vehicle: saline) was 111 % of control.

In the case of `CC(C)(CO)CN1CCCCC1`, the T/C [8] is reported as 101 % of control and the T/C [13] is reported as 93 % of control.

`COc1cc(NC(=O)Nc2ccccc2C)c(OC)cc1Cl` was tested, and the T/C [14] was 90 % of control, the T/C [15] was 90 % of control and the T/C [16] was 86 % of control.

For `CCOC(=O)/C(C#N)=C(\C)c1ccccc1`, the T/C (endpoint: mean survival time, dose: 37.5 mg/kg/injection, schedule: Q01DX009 (ip), vehicle: saline with Tween-80) was 95 % of control and the T/C (endpoint: mean survival time, dose: 75.0 mg/kg/injection, schedule: Q01DX009 (ip), vehicle: saline with Tween-80) was 97 % of control.

With `COC(=O)CC(=O)C12OC1CC1C3CC=C4CC(OC(C)=O)CCC4(C)C3CCC12C` (stereo unspecified) the T/C (endpoint: mean survival time, dose: 75.0 mg/kg/injection, schedule: Q04DX003 (sc), vehicle: steriod suspending solution) was 101 % of control, the T/C (endpoint: mean survival time, dose: 150.0 mg/kg/injection, schedule: Q04DX003 (sc), vehicle: steriod suspending solution) was 103 % of control and the T/C (endpoint: mean survival time, dose: 300.0 mg/kg/injection, schedule: Q04DX003 (sc), vehicle: steriod suspending solution) was 97 % of control.
